Reference: ChEMBL document CHEMBL6114962, “Nucleoside antiviral agents with atypical structures and new targets” (Bioorg Med Chem Lett, 2025)
pEC50, pIC50: −log10 of the molar value. ≈ marks a conversion by molar mass, not a printed value.

Key:
[1] = tested on: SARS-CoV; experiment: Antiviral activity against SARS-CoV Frankfurt-1 infected in Vero E6 cells assessed as reduction in viral replication; assay type: functional, organism-based; conditions: Severe acute respiratory syndrome-related coronavirus, Frankfurt-1, Vero C1008
[2] = tested on: SARS-CoV; experiment: Antiviral activity against SARS-CoV HKU39849 infected in Vero E6 cells assessed as reduction in viral replication; assay type: functional, organism-based; conditions: Severe acute respiratory syndrome-related coronavirus, HKU39849, Vero C1008
[3] = Cytotoxicity against African green monkey Vero E6 cells assessed as reduction in cell viability measured after 72 hrs by WST-1 assay; assay type: toxicity, cell-based, Vero C1008; conditions: chlorocebus sabaeus
[4] = Cytotoxicity against human HEL 299 cells; assay type: toxicity, cell-based
[5] = tested on: Human betaherpesvirus 5; experiment: Antiviral activity against HCMV; assay type: functional, organism-based
[6] = tested on: Influenza A virus; experiment: Antiviral activity against influenza A virus H1N1 infected in dog MDCK cells assessed as reduction in virus induced cytopathic effect by CPE assay; assay type: functional, organism-based
[7] = tested on: Influenza A virus; experiment: Anti-influenza activity against influenza A virus H3N2 (A/California/2014) infected in dog MDCK cells incubated for 72 hrs by MTT assay; assay type: functional, organism-based
[8] = Cytotoxicity against dog MDCK cells assessed as reduction in cell viability incubated for 48 hrs by CCK-8 assay; assay type: toxicity, cell-based, Canis lupus familiaris
[9] = biological target: Replicase polyprotein 1ab (Severe acute respiratory syndrome coronavirus 2, UniProt P0DTD1); experiment: Inhibition of C-terminal SARS-CoV-2 nsp14 N7-methyltransferase activity incubated for 30 mins in presence of SAM by Liquid scintillation analysis
[10] = tested on: Human alphaherpesvirus 3; experiment: Antiviral activity against Varicella zoster virus infected in human HEL cells assessed as inhibition of plaque formation measured for 3 days; assay type: functional, organism-based; conditions: Human alphaherpesvirus 3, HEL, 72 h
[11] = tested on: HMEC-1; experiment: Cytotoxicity against human HMEC-1 cells assessed as reduction in cell growth incubated for 24 hrs; assay type: functional
[12] = biological target: RNA-directed RNA polymerase (Hepacivirus hominis, UniProt O39930); experiment: Inhibition of Hepatitis C virus NS5B polymerase
Sequence of RNA-directed RNA polymerase (O39930 whole entry): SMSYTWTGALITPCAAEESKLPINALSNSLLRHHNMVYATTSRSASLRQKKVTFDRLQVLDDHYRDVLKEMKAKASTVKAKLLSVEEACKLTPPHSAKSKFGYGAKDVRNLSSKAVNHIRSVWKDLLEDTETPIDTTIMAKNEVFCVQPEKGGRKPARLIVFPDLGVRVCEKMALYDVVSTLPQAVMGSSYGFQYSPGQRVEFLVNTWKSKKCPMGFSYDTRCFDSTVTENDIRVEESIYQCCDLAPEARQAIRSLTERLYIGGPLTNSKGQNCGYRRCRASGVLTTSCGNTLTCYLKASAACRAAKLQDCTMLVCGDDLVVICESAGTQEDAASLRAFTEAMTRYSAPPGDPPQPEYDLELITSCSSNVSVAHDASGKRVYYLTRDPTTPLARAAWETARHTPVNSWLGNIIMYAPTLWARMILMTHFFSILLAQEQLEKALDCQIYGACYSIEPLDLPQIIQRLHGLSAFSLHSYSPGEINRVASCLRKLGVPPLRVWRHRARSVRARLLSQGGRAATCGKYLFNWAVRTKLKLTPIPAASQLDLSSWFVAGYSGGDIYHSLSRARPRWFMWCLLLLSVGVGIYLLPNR

[13] = tested on: Hepatitis C virus; experiment: Antiviral activity against Hepatitis C virus infected in Vero E6 cells assessed as virus induced cytopathic effect; assay type: functional, organism-based, Hepacivirus hominis; conditions: Vero C1008
[14] = tested on: Human coronavirus OC43; experiment: Antiviral activity against Human coronavirus OC43 infected in Vero cells assessed as reduction in viral replication pre-incubated with virus for 1 hr followed by washout and compound treatment and measured after 3 days by qRT-PCR analysis; assay type: functional, organism-based; conditions: Betacoronavirus 1, Vero
[15] = Cytotoxicity against African green monkey Vero cells; assay type: toxicity, cell-based; conditions: chlorocebus sabaeus
[16] = tested on: Ebolavirus; experiment: Antiviral activity against Ebola virus infected in Vero E6 cells assessed as virus-induced cytopathic effect incubated for 3 days by CPE assay; assay type: functional, organism-based; conditions: Orthoebolavirus, Vero C1008, 72 h
[17] = Cytotoxicity against African green monkey Vero E6 cells assessed as reduction in cell growth; assay type: toxicity, cell-based; conditions: chlorocebus sabaeus
[18] = tested on: Vaccinia virus; experiment: Antiviral activity against Vaccinia virus; assay type: functional, organism-based; conditions: Orthopoxvirus vaccinia
[19] = Cytotoxicity against human HFF cells; assay type: toxicity, cell-based
[20] = tested on: SARS-CoV; experiment: Antiviral activity against SARS-CoV Urbani infected in Vero E6 cells at 0.01 to 0.025 MOI assessed as inhibition of virus induced cytopathic effect; assay type: functional, organism-based; conditions: Severe acute respiratory syndrome-related coronavirus, Vero C1008
[21] = Cytotoxicity against African green monkey Vero E6 cells assessed as reduction in cell viability by neutral red uptake assay; assay type: toxicity, cell-based, Vero C1008; conditions: chlorocebus sabaeus
[22] = Cytotoxicity against African green monkey Vero E6 cells assessed as reduction in cell viability by Cell titer-Glo luminescent assay; assay type: toxicity, cell-based; conditions: chlorocebus sabaeus
[23] = tested on: Influenza A virus; experiment: Antiviral activity against influenza A virus A/WSN/33 (H1N1) infected in dog MDCK cells assessed as reduction in virus induced cytopathic effect measured after 48 hrs by crystal violet staining based assay; assay type: functional, organism-based
[24] = tested on: Influenza A virus; experiment: Antiviral activity against Influenza virus H3N2 (A/Hong Kong/8/68) infected in dog MDCK cells assessed as reduction in virus induced cytopathic effect measured after 48 hrs by crystal violet staining based assay; assay type: functional, organism-based
[25] = Cytotoxicity against dog MDCK cells assessed as reduction in cell viability incubated for 72 hrs by CCK-8 assay; assay type: toxicity, cell-based, Canis lupus familiaris
[26] = tested on: Human alphaherpesvirus 3; experiment: Antiviral activity against Varicella zoster virus infected in human HEL cells assessed as reduction in plaque formation incubated for 72 hrs; assay type: functional, organism-based; conditions: Human alphaherpesvirus 3, HEL
[27] = Cytotoxicity against human HEL cells; assay type: toxicity, cell-based
[28] = tested on: SARS-CoV-2; experiment: Antiviral activity against SARS CoV-2 Omicron B1.1.529 infected in Vero E6 cells at 0.02 MOI assessed as reduction in viral RNA growth incubated for 24 hrs by qRT-PCR analysis; assay type: functional, organism-based; conditions: Severe acute respiratory syndrome coronavirus 2, Omicron B1.1.529, Vero C1008, 24 h
[29] = tested on: HEL; experiment: Cytotoxicity against human HEL cells assessed as reduction in cell viability incubated for 24 hrs by MTT assay; assay type: functional
[30] = tested on: Human alphaherpesvirus 3; experiment: Antiviral activity against Varicella zoster virus infected in human HEL cells assessed as reduction in plaque formation; assay type: functional, organism-based; conditions: Human alphaherpesvirus 3, HEL
[31] = biological target: Histone-lysine N-methyltransferase SETD2 (Homo sapiens, UniProt Q9BYW2); experiment: Inhibition of human recombinant […] N-terminal His-tagged SETD2 (1347to1711 residues) extracted from Escherichia coli BL21 (DE3) using biotin-tagged Histone H3 and 3H-SAM as substrate incubated for 1 hr by TopCount scintillation proximity assay
Sequence of Histone-lysine N-methyltransferase SETD2 (Q9BYW2 whole entry, the tested form may be a part): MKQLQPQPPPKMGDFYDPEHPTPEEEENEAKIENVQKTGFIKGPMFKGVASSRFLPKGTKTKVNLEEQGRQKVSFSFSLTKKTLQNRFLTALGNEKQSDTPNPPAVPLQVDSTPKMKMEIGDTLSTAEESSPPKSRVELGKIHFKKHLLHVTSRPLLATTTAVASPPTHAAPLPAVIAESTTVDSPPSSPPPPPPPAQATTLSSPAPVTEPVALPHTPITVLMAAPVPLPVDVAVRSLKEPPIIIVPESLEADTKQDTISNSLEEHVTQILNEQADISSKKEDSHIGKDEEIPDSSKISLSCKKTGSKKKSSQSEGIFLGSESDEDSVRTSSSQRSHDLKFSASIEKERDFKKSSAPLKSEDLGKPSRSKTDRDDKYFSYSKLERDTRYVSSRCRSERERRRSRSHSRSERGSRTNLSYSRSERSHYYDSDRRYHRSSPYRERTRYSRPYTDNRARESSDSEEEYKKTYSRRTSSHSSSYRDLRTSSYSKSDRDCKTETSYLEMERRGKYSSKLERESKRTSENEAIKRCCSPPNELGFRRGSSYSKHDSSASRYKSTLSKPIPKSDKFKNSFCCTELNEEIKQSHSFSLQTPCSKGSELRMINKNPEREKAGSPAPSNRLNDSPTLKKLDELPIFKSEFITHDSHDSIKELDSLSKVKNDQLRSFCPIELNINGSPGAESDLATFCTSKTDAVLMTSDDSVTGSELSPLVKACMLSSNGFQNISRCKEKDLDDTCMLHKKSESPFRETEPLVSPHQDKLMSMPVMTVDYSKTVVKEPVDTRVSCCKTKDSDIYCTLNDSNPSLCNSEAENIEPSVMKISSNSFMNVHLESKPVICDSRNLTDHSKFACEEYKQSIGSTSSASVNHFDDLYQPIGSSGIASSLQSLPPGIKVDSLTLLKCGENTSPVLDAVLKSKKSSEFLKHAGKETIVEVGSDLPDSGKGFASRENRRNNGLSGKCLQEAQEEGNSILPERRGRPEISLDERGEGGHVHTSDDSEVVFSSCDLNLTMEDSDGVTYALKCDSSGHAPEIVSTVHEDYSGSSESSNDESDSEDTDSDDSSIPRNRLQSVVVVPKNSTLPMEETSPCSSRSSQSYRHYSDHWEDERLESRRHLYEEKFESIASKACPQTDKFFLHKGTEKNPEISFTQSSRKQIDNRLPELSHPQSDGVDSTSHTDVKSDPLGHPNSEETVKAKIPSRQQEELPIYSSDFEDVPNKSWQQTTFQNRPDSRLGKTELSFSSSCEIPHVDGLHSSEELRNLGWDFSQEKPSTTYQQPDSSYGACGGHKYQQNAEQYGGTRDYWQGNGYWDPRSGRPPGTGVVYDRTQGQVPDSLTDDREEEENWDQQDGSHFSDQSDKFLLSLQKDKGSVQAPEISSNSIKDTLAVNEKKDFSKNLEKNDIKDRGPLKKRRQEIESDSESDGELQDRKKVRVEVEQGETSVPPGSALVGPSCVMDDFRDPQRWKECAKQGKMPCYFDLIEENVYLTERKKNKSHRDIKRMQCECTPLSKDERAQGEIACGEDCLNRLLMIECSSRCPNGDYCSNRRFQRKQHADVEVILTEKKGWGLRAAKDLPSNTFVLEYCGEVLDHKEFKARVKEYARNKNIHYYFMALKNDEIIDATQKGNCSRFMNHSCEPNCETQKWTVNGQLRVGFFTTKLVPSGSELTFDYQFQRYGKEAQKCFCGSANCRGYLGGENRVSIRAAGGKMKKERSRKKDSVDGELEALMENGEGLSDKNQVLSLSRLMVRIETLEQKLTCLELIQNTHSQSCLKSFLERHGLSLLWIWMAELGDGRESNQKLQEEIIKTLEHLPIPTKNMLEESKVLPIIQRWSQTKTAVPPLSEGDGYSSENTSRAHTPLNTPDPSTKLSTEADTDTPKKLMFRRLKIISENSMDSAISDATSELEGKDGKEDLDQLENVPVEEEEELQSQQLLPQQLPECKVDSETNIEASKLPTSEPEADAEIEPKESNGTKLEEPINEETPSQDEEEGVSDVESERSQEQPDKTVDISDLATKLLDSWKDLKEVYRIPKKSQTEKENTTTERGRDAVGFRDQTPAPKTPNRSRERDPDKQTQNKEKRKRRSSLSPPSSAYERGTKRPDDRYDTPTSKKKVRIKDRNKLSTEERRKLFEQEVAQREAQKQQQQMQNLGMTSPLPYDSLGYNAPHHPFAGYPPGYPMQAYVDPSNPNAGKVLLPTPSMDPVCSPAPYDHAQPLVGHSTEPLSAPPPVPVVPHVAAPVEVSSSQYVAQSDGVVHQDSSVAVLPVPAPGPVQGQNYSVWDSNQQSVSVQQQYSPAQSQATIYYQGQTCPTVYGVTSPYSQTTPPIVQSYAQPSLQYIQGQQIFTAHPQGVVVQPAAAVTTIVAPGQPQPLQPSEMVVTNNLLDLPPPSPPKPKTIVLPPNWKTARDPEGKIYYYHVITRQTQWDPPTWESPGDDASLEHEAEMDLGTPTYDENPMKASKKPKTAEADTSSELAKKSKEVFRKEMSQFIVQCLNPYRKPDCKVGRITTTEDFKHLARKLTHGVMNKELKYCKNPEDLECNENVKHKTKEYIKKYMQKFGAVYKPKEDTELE

[32] = tested on: Human alphaherpesvirus 1; experiment: Antiviral activity against HSV-1; assay type: functional, organism-based
[33] = tested on: Human alphaherpesvirus 2; experiment: Antiviral activity against HSV-2; assay type: functional, organism-based
[34] = tested on: Hepatitis C virus; experiment: Antiviral activity against Hepatitis C virus infected in human Huh-7 cells assessed as reduction in viral infection incubated for 72 hrs by qRT-PCR analysis; assay type: functional, organism-based, Hepacivirus hominis; conditions: Huh-7, 72 h

NC(=O)c1ncn([C@@H]2O[C@H](CO)[C@@H](O)[C@H]2O)n1 [RIBAVIRIN]
EC50 [1]: 20 µg/mL (≈ 81.9 µM)
EC50 [2]: 80 µg/mL (≈ 328 µM)
CC50 at 72 h [3]: > 200 µg/mL

Nc1nc2c(ncn2C[Se]C(CO)CO)c(=O)[nH]1
CC50 [4]: > 100 µM
pEC50 [5]: 4.27

NC(=O)c1nc(F)cnc1O [FAVIPIRAVIR]
EC50 [6]: 0.03 µg/mL (≈ 0.191 µM)
EC50 [7]: 0.07 µg/mL (≈ 0.446 µM)
CC50 at 48 h [8]: > 100 µM

Nc1ncnc2c1c(C#Cc1cnc3ccccc3c1)cn2[C@@H]1O[C@H](CSCC[C@H](N)C(=O)O)[C@@H](O)[C@H]1O
pIC50 [9]: 8.52

C#CCn1c(=O)n(C(=O)c2ccccc2F)c(=O)c2ccccc21
pEC50 [10]: 5.55
CC50 [11]: > 100 µM

O=c1nc(NO)ccn1[C@@H]1O[C@H](CO)[C@@H](O)[C@H]1O [N-HYDROXYCYTIDINE]
pIC50 [12]: 4.30
pEC50 [13]: 5.30

NC(=O)c1cc([C@@H]2O[C@H](CO)[C@@H](O)[C@H]2O)n2nc(CF)nc(N)c12
pEC50 [14]: 5.89
CC50 [15]: 45 µM

Nc1nccc2c1ncn2[C@@H]1C=C(CO)[C@@H](O)[C@H]1O
pEC50 [16]: 4.52
CC50 [17]: > 100 µM

Nc1ccn(C[C@@H](CO)OCP(=O)(O)O)c(=O)n1 [CIDOFOVIR ANHYDROUS]
pEC50 [18]: 4.56
CC50 [19]: > 100 µM

C#Cc1c(C(N)=O)ncn1[C@@H]1O[C@H](CO)[C@@H](O)[C@H]1O
pEC50 [20]: < 4.40
CC50 [21]: > 40 µM

CC(C)=CCNc1ncnc2c1ncn2[C@@H]1O[C@H](CO)[C@@H](O)[C@H]1O [RIBOPRINE]
CC50 [22]: > 100 µM

Cc1ncnc2c1c(/C=C/c1cccs1)cn2[C@@H]1O[C@H](CO)[C@@H](O)[C@@]1(C)F
pEC50 [23]: 5.40
pEC50 [24]: 5.44
CC50 at 72 h [25]: > 100 µM

O=c1nc2oc(CCCCCCCCCBr)cc2cn1[C@H]1C[C@H](O)[C@@H](CO)O1
pEC50 [26]: 7.51
CC50 [27]: > 50 µM

CC(C)C(=O)OC[C@H]1O[C@@H](n2ccc(NO)nc2=O)[C@H](O)[C@@H]1O [MOLNUPIRAVIR]
CC50 [22]: > 100 µM
pEC50 [28]: 5.97

COc1ccc(C(OC[C@H]2O[C@@H](n3cc4c(nc3=O)Nc3ccccc3O4)[C@H](O)[C@@H]2O)(c2ccccc2)c2ccc(OC)cc2)cc1
CC50 [29]: 9.7 µM
pEC50 [30]: 5.57

COc1c(C)c2c(c(O)c1C/C=C(\C)CCC(=O)O)C(=O)OC2 [MYCOPHENOLIC ACID]
pEC50 [20]: < 4.52
CC50 [21]: > 30 µM

CCC(CC)COC(=O)[C@H](C)N[P@](=O)(OC[C@H]1O[C@@](C#N)(c2ccc3c(N)ncnn23)[C@H](O)[C@@H]1O)Oc1ccccc1 [REMDESIVIR]
CC50 [22]: > 100 µM
pEC50 [28]: 6.01

O=c1c2ccccc2n(Cc2cn(CCCOCc3ccccc3)nn2)c(=O)n1Cc1ccccc1
pEC50 [10]: < 4.70

O=c1nc2oc(CCCCCCCCCCl)cc2cn1[C@H]1C[C@H](O)[C@@H](CO)O1
pEC50 [26]: 7.92
CC50 [27]: 200 µM

COc1ccc(C(OC[C@H]2O[C@@H](n3cc4c(nc3=O)Nc3ccccc3O4)C[C@@H]2O)(c2ccccc2)c2ccc(OC)cc2)cc1
CC50 [29]: 12.2 µM
pEC50 [30]: 5.82

O=c1c2ccccc2n(Cc2cn(CCCOCc3ccccc3)nn2)c(=O)n1Cc1ccc(F)cc1
pEC50 [10]: 4.91

O=c1[nH]cnc2c([C@@H]3N[C@H](CO)[C@@H](O)[C@H]3O)c[nH]c12 [FORODESINE]
CC50 [22]: > 100 µM

Cc1nc(N)c2c(C(N)=O)cc([C@@H]3O[C@H](CO)[C@@H](O)[C@H]3O)n2n1
pEC50 [14]: 6.19
CC50 [15]: 45 µM

Nc1nccc2c1ncn2[C@@H]1C[C@H](CO)[C@@H](O)[C@H]1O [3-DEAZAARISTEROMYCIN A]
pEC50 [16]: 5.70
CC50 [17]: > 100 µM

C#CCn1c(=O)n(C(=O)c2ccccc2)c(=O)c2ccccc21
pEC50 [10]: 5.27
CC50 [11]: 11.2 µM

CC(C)Nc1nc2cc(Cl)c(Cl)cc2n1[C@H]1O[C@@H](CO)[C@H](O)[C@@H]1O [MARIBAVIR]
CC50 [22]: > 100 µM

Nc1ncnc2c1ncn2[C@@H]1O[C@H](C[C@@H](N)CC[C@H](N)C(=O)O)[C@@H](O)[C@H]1O [SINEFUNGIN]
pIC50 [31]: 4.55

O=c1nc2oc(CCCCCCCCCI)cc2cn1[C@H]1C[C@H](O)[C@@H](CO)O1
pEC50 [26]: 7.47
CC50 [27]: > 200 µM

NC(=O)c1ncn([C@@H]2O[C@H](CO)[C@@H](O)[C@H]2O)c1O [MIZORIBINE]
EC50 [1]: 3.5 µg/mL (≈ 13.5 µM)
EC50 [2]: 16 µg/mL (≈ 61.7 µM)
CC50 at 72 h [3]: > 200 µg/mL

CCCCCOCCCCCCCCCc1cc2cn([C@@H]3CC[C@H](CO)O3)c(=O)nc2o1
pEC50 [18]: 6.72
CC50 [19]: > 100 µM

OC[C@@H]1O[C@H](n2cnc3cc(Br)c(Br)cc32)[C@@H](O)[C@H]1O
pEC50 [5]: 5.92

O[C@@H]1[C@H](O)[C@H](O)CO[C@H]1Cn1c(Br)nc2cc(Cl)c(Cl)cc21
pEC50 [5]: 5.85

Cc1ncnc2c1c(/C=C/c1ccccn1)cn2[C@@H]1O[C@H](CO)[C@@H](O)[C@@]1(C)F
pEC50 [23]: 5.23
pEC50 [24]: 5.16
CC50 at 72 h [25]: > 100 µM

Nc1nc2c(ncn2C[Se]CCO)c(=O)[nH]1
CC50 [4]: > 100 µM
pEC50 [32]: 5.83
pEC50 [33]: 5.20

OC[C@H]1O[C@@H](n2cnc3c(N[C@@H]4CCOC4)ncnc32)[C@H](O)[C@@H]1O [TECADENOSON]
CC50 [22]: > 100 µM
pEC50 [28]: 5.95

Nc1ncnc2c1ncn2[C@@H]1O[C@H](CO)[C@@H](O)[C@@H]1O [VIDARABINE]
CC50 [22]: > 100 µM
pEC50 [28]: 6.60

O=c1nc2c(cn1[C@H]1C[C@H](O)[C@@H](CO)O1)Oc1ccccc1N2
CC50 [29]: > 100 µM

O=c1nc2oc(CCCCCCCCCF)cc2cn1[C@H]1C[C@H](O)[C@@H](CO)O1
pEC50 [26]: 7.85
CC50 [27]: 200 µM

CC(C)OC(=O)[C@H](C)N[P@](=O)(OC[C@H]1O[C@@H](n2ccc(=O)[nH]c2=O)[C@](C)(F)[C@@H]1O)Oc1ccccc1 [SOFOSBUVIR]
pEC50 [34]: 7.04

Nc1ncnc2c1ncn2[C@@H]1O[C@H](C[C@H](CC[C@H](N)C(=O)O)NCc2ccccc2)[C@@H](O)[C@H]1O
pIC50 [31]: 6.32

COc1ccc(C(OC[C@H]2O[C@@H](n3cc4c(nc3=O)Nc3c(OCCN)cccc3O4)C[C@@H]2O)(c2ccccc2)c2ccc(OC)cc2)cc1
CC50 [29]: 14.4 µM
pEC50 [30]: 5.77

COc1nc(N)nc2c1ncn2[C@@H]1O[C@H](CO)[C@@H](O)[C@@H]1O [NELARABINE]
CC50 [22]: > 100 µM
